# Earlier results in patent US6468258B1, “Plastic compositions including vitamin E for medical containers and methods for providing such compositions and containers” (Baxter International Inc., priority 1997, dated 2002).
# System: red blood cells
# Details: Vitamin E added directly to red blood cells; as reported in U.S. Pat. No. 5,037,419
substance,measurement,value
Vitamin E,hemolysis,lower hemolysis
